Assay results as given in patent US6461997B1, “Triazole sulfones having herbicidal activity” (Monsanto Technology LLC, priority 1999, dated 2002).

How the values were obtained:
POROL (common purslane) = test: Pre-emergence herbicidal activity, warm season; type: in vivo, Portulaca oleracea; conditions: GR80 = lowest tested rate (300, 100, 30, 10 g/ha) with 80% or greater inhibition; approx. 14 days after treating; 30/21° C.
Method in brief: (§1)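 Seeds sown in sterilised fertilised topsoil received surface-applied compound in 50:50 acetone/water, typically at 300, 100, 30 and 10 g/ha, then greenhouse-grown at 30/21° C (warm-season species) or 18/13° C (cool-season species). Percent inhibition versus untreated plants was scored at about 14 days, giving GR80; an asterisk marks activity short of 80% at the top rate.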

SETFA (giant foxtail) = test: Pre-emergence herbicidal activity, warm season; type: in vivo, Setaria faberi; conditions: GR80 = lowest tested rate (300, 100, 30, 10 g/ha) with 80% or greater inhibition; approx. 14 days after treating; 30/21° C.
Method in brief: (§2)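 GR80 values derive from percent inhibition relative to untreated plants, read roughly 14 days after sowing and pre-emergence soil-surface treatment (compound in 50:50 acetone/water; rates typically 10, 30, 100, 300 g/ha). Warm-season weeds grew at 30/21° C day/night, cool-season ones at 18/13° C; an asterisk marks activity without reaching 80% at the highest rate.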

[1] = tested on: BRAPP (broadleaf signalgrass); test: Pre-emergence herbicidal activity, warm season; type: in vivo, Brachiaria platyphylla; conditions: GR80 = lowest tested rate (300, 100, 30, 10 g/ha) with 80% or greater inhibition; approx. 14 days after treating; 30/21° C.
Method in brief: as §2

[2] = tested on: GALAP (catchweed bedstraw); test: Pre-emergence herbicidal activity, cool season; type: in vivo, Galium aparine; conditions: lowest tested rate with 80% or greater inhibition; rates 300, 100, 30, 10 g/ha; about 14 days
Method in brief: as §1

PANDI (fall panicum) = test: Pre-plant incorporated (PPI) herbicidal activity, warm season; type: in vivo, Panicum dichotomiflorum; conditions: for PPI activity GR80, PANDI: pre-plant incorporated, lowest tested rate with 80% or greater inhibition, about 14 days
Method in brief: (§3)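 Compound-laden cover soil (organic solvent spray, mixed in) over seeds; 0.64 cm overhead water initially. Evaluated ~14 days: % inhibition relative to untreated.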

SINAR (wild mustard) = test: Pre-plant incorporated (PPI) herbicidal activity, cool season; type: in vivo, Sinapis arvensis; conditions: for PPI activity GR80, SINAR: pre-plant incorporated, lowest tested rate with 80% or greater inhibition, about 14 days
Method in brief: as §3

[3] = tested on: VERPE (creeping speedwell); test: as above; type: in vivo, Veronica persicaria; conditions: for PPI activity GR80, VERPE: pre-plant incorporated, lowest tested rate with 80% or greater inhibition, about 14 days; for Percent inhibition VERPE: weed, PPI application
Method in brief: as §3

SASKR (russian thistle) = test: as above; type: in vivo, Salsola kali; conditions: for PPI activity GR80, SASKR: pre-plant incorporated, lowest tested rate with 80% or greater inhibition, about 14 days
Method in brief: as §3

[4] = tested on: AGSST (creeping bentgrass); test: as above; type: in vivo, Agrostis stolonifera; conditions: for PPI activity GR80, AGSST: pre-plant incorporated, lowest tested rate with 80% or greater inhibition, about 14 days
Method in brief: as §3

rice (ORYSA) = test: Selectivity test, PPI, warm season crop; type: in vivo, Oryza sativa; conditions: PPI application
Method in brief: (§4)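 Pre-plant incorporated: compound in organic solvent sprayed onto cover soil, mixed and laid over seeds; untreated soil for controls. Greenhouse after treatment: warm season 30/21° C., cool season 18/13° C. day/night. Percent inhibition versus untreated plants scored about 14 days after planting.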

oilseed rape (BRSNS) = test: Selectivity test, PPI, cool season crop; type: in vivo, Brassica napus; conditions: PPI application
Method in brief: as §4

[5] = weed, PPI application, 100 g/ha
[6] = weed, PPI application, 300 g/ha
[7] = weed, PPI application, 900 g/ha

CCSC(F)(F)S(=O)(=O)c1ncn(C(=O)N(CC)CC)n1 [Example 8, 1-(N,N-diethylcarbamoyl)-3-[difluoro(ethylthio)methylsulfonyl]-1,2,4-triazole]
Pre-emergence activity (GR80) POROL (POROL (common purslane)): 300 g/ha
Pre-emergence activity (GR80) SETFA (SETFA (giant foxtail)): 100 g/ha
Pre-emergence activity (GR80) BRAPP [1]: 100 g/ha
Pre-emergence activity GR80, GALAP [2]: [empty]
inhibition at 30 g/ha (PANDI (fall panicum); Panicum dichotomiflorum, PPI application, 30 g/ha, read-out: Percent inhibition PANDI): 95%
inhibition at 100 g/ha (PANDI (fall panicum); Panicum dichotomiflorum, PPI application, 100 g/ha, read-out: Percent inhibition PANDI): 100%
inhibition at 300 g/ha (PANDI (fall panicum); Panicum dichotomiflorum, PPI application, 300 g/ha, read-out: Percent inhibition PANDI): 100%
inhibition at 900 g/ha (PANDI (fall panicum); Panicum dichotomiflorum, PPI application, 900 g/ha, read-out: Percent inhibition PANDI): 100%
PPI activity GR80, PANDI (PANDI (fall panicum)): 30 g/ha
inhibition at 30 g/ha (SINAR (wild mustard); Brassica, weed, PPI application, 30 g/ha, read-out: Percent inhibition SINAR): 100%
inhibition at 100 g/ha (SINAR (wild mustard); Brassica, weed, PPI application, 100 g/ha, read-out: Percent inhibition SINAR): 95%
inhibition at 300 g/ha (SINAR (wild mustard); Brassica, weed, PPI application, 300 g/ha, read-out: Percent inhibition SINAR): 100%
inhibition at 900 g/ha (SINAR (wild mustard); Brassica, weed, PPI application, 900 g/ha, read-out: Percent inhibition SINAR): 80%
PPI activity GR80, SINAR (SINAR (wild mustard)): 100 g/ha
PPI activity GR80, VERPE [3]: 100 g/ha
inhibition at 30 g/ha (SASKR (russian thistle); Salsola kali, weed, PPI application, 30 g/ha, read-out: Percent inhibition SASKR): 0%
inhibition at 100 g/ha (SASKR (russian thistle); Salsola kali, weed, PPI application, 100 g/ha, read-out: Percent inhibition SASKR): 50%
inhibition at 300 g/ha (SASKR (russian thistle); Salsola kali, weed, PPI application, 300 g/ha, read-out: Percent inhibition SASKR): 90%
inhibition at 900 g/ha (SASKR (russian thistle); Salsola kali, weed, PPI application, 900 g/ha, read-out: Percent inhibition SASKR): 100%
PPI activity GR80, SASKR (SASKR (russian thistle)): 100 g/ha
inhibition at 30 g/ha ([4]; Agrostis stolonifera, weed, PPI application, 30 g/ha, read-out: Percent inhibition AGSST): 100%
inhibition at 100 g/ha ([4]; Agrostis stolonifera, weed, PPI application, 100 g/ha, read-out: Percent inhibition AGSST): 100%
inhibition at 300 g/ha ([4]; Agrostis stolonifera, weed, PPI application, 300 g/ha, read-out: Percent inhibition AGSST): 100%
inhibition at 900 g/ha ([4]; Agrostis stolonifera, weed, PPI application, 900 g/ha, read-out: Percent inhibition AGSST): 100%
PPI activity GR80, AGSST [4]: 30 g/ha
inhibition at 30 g/ha (rice (ORYSA); Oryza sativa, 30 g/ha, read-out: Percent inhibition ORYSA): 0%
inhibition at 100 g/ha (rice (ORYSA); Oryza sativa, 100 g/ha, read-out: Percent inhibition ORYSA): 40%
inhibition at 300 g/ha (rice (ORYSA); Oryza sativa, 300 g/ha, read-out: Percent inhibition ORYSA): 50%
inhibition at 900 g/ha (rice (ORYSA); Oryza sativa, 900 g/ha, read-out: Percent inhibition ORYSA): 70%
inhibition at 30 g/ha (oilseed rape (BRSNS); Brassica napus, 30 g/ha, read-out: Percent inhibition BRSNS): 0%
inhibition at 100 g/ha (oilseed rape (BRSNS); Brassica napus, 100 g/ha, read-out: Percent inhibition BRSNS): 0%
inhibition at 300 g/ha (oilseed rape (BRSNS); Brassica napus, 300 g/ha, read-out: Percent inhibition BRSNS): 40%
inhibition at 900 g/ha (oilseed rape (BRSNS); Brassica napus, 900 g/ha, read-out: Percent inhibition BRSNS): 100%

CCN(CC)C(=O)n1cnc(S(=O)(=O)C(F)(F)C(F)F)n1 [Example 16]
Pre-emergence activity (GR80) POROL (POROL (common purslane)): 100 g/ha
Pre-emergence activity (GR80) SETFA (SETFA (giant foxtail)): 30 g/ha
Pre-emergence activity (GR80) BRAPP [1]: 300 g/ha
Pre-emergence activity GR80, GALAP [2]: 100 g/ha
Percent inhibition PANDI (PANDI (fall panicum); PPI application, 10 g/ha): 0%
Percent inhibition PANDI (PANDI (fall panicum); PPI application, 30 g/ha): 100%
Percent inhibition PANDI (PANDI (fall panicum); PPI application, 100 g/ha): 100%
Percent inhibition PANDI (PANDI (fall panicum); PPI application, 300 g/ha): 100%
Percent inhibition PANDI (PANDI (fall panicum); PPI application, 900 g/ha): 100%
PPI activity GR80, PANDI (PANDI (fall panicum)): 10 g/ha
PPI activity GR80, SINAR (SINAR (wild mustard)): 10 g/ha
Percent inhibition SINAR (SINAR (wild mustard); weed, PPI application, 10 g/ha): 0%
Percent inhibition SINAR (SINAR (wild mustard); weed, PPI application, 30 g/ha): 50%
Percent inhibition SINAR (SINAR (wild mustard); [5]): 100%
Percent inhibition SINAR (SINAR (wild mustard); [6]): 100%
Percent inhibition SINAR (SINAR (wild mustard); [7]): 100%
PPI activity GR80, VERPE [3]: 100 g/ha
Percent inhibition VERPE ([3]; 10 g/ha): 100%
Percent inhibition VERPE ([3]; 30 g/ha): 95%
Percent inhibition VERPE ([3]; 100 g/ha): 100%
Percent inhibition VERPE ([3]; 300 g/ha): 100%
Percent inhibition VERPE ([3]; 900 g/ha): 100%
PPI activity GR80, SASKR (SASKR (russian thistle)): 30 g/ha
Percent inhibition SASKR (SASKR (russian thistle); weed, PPI application, 10 g/ha): 65%
Percent inhibition SASKR (SASKR (russian thistle); weed, PPI application, 30 g/ha): 90%
Percent inhibition SASKR (SASKR (russian thistle); [5]): 80%
Percent inhibition SASKR (SASKR (russian thistle); [6]): 80%
Percent inhibition SASKR (SASKR (russian thistle); [7]): 100%
PPI activity GR80, AGSST [4]: 10 g/ha
Percent inhibition AGSST ([4]; weed, PPI application, 10 g/ha): 100%
Percent inhibition AGSST ([4]; weed, PPI application, 30 g/ha): 100%
Percent inhibition AGSST [4, 5]: 100%
Percent inhibition AGSST [4, 6]: 100%
Percent inhibition AGSST [4, 7]: 100%
Percent inhibition ORYSA (rice (ORYSA); 10 g/ha): 0%
Percent inhibition ORYSA (rice (ORYSA); 30 g/ha): 0%
Percent inhibition ORYSA (rice (ORYSA); 100 g/ha): 30%
Percent inhibition ORYSA (rice (ORYSA); 300 g/ha): 90%
Percent inhibition ORYSA (rice (ORYSA); 900 g/ha): 100%
Percent inhibition BRSNS (oilseed rape (BRSNS); 10 g/ha): 0%
Percent inhibition BRSNS (oilseed rape (BRSNS); 30 g/ha): 0%
Percent inhibition BRSNS (oilseed rape (BRSNS); 100 g/ha): 0%
Percent inhibition BRSNS (oilseed rape (BRSNS); 300 g/ha): 30%
Percent inhibition BRSNS (oilseed rape (BRSNS); 900 g/ha): 75%
